# Measured values reported in patent US12295937B2, “Psychoactive medicines and their use for treating psychiatric and neurological conditions and disorders” (Transcend Therapeutics, Inc., priority 2021, dated 2025).
# Where two headings read alike, the source gives them in different places.
# Key:
# [1] = Mouse head-twitch response (HTR) test; assay type: in vivo; conditions: i.p., HTR measured for 10 minutes
# Experimental: Head twitch response (HTR) was evaluated using C57BL/6J mice (ages 7-10 weeks). Mice were ear tagged at least three days after arrival to the animal facility and allowed to rest for at least three days before behavioral testing. Small magnets (SuperMagnetMan—N45 magnet 3 mm diameter, 0.5 mm thickness) were glued to car tags (Stoelting—La Pias Aluminum Ear Tags) at least two days before mice were car tagged. The experimental setup was adapted from Gonzales-Macso (de la Fuente Revenga et al., 2019) and Kwan (Jefferson et al., 2022; Savalia et al., 2021), including experimental apparatus and MATLAB code for analysis.
# Doses were randomly assigned, and age-matched controls were injected with vehicle and randomly interspersed with drug conditions. At least three animals per sex were used for each drug dose and condition. If animals were used in multiple HTR experiments, experimental sessions took place at least one week apart. Two animals were run at a time. Immediately after i.p. injection of psychedelic or entactogen drug, animals were placed in separate plastic boxes within a larger chamber (Home Depot—28 in. W×32 in. H×21.5 in. D), and HTR was measured for 10 minutes. A small lamp was placed in the back of the larger chamber, and a high-speed camera (Basler-Aca 1920-155 μm) was suspended from the ceiling to record video of the animals in the plastic boxes. […]
# [2] = cited from earlier work
# NET = NET (Rattus norvegicus, UniProt Q63380); experiment: [3H]NE uptake inhibition in rat brain synaptosomes; conditions: read-out: Reuptake inhibition: IC50; rat brain synaptosomes
# Chain of NET (Q63380 1-617): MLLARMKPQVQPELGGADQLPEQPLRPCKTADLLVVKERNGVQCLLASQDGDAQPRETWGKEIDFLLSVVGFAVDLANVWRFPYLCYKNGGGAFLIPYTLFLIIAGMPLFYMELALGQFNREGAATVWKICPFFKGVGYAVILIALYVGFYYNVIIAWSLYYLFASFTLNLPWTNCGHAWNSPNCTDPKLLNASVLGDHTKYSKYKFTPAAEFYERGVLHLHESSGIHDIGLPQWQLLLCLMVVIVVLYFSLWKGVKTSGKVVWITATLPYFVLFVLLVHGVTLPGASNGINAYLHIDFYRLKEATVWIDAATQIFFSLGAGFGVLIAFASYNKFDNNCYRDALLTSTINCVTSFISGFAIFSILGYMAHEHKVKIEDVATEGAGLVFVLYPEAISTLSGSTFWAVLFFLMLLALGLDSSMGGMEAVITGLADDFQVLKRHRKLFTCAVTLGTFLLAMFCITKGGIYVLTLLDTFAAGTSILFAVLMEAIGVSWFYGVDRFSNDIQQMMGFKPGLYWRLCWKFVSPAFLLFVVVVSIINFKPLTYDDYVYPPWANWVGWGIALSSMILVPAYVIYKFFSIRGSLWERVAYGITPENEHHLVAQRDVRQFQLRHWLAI
# SERT [3] = target: T1, SERT (Rattus norvegicus, UniProt P31652); experiment: [3H]5-HT uptake inhibition in rat brain synaptosomes; conditions: read-out: Reuptake inhibition: IC50; rat brain synaptosomes
# T1 sequence (P31652 whole entry): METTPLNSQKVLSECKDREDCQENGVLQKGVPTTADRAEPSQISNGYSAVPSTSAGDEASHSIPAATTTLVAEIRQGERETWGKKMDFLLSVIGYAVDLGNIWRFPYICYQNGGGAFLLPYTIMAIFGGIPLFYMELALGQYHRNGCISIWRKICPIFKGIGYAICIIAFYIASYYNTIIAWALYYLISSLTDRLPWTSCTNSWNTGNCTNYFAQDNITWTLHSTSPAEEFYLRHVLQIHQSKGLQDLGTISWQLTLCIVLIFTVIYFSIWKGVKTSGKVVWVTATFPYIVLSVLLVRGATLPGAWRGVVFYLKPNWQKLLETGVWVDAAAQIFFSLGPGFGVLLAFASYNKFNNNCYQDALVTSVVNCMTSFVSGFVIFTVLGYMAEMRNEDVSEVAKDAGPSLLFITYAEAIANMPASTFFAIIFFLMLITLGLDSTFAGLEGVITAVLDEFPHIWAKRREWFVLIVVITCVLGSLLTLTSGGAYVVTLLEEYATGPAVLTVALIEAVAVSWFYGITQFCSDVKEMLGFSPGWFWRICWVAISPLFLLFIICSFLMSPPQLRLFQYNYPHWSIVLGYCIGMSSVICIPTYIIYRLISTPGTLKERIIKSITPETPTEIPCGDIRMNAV
# [4] = target: vesicular monoamine transporter 2 (VMAT2) (Homo sapiens, UniProt Q05940); conditions: cited from earlier work
# Chain of vesicular monoamine transporter 2 (VMAT2) (Q05940 whole entry, species assumed): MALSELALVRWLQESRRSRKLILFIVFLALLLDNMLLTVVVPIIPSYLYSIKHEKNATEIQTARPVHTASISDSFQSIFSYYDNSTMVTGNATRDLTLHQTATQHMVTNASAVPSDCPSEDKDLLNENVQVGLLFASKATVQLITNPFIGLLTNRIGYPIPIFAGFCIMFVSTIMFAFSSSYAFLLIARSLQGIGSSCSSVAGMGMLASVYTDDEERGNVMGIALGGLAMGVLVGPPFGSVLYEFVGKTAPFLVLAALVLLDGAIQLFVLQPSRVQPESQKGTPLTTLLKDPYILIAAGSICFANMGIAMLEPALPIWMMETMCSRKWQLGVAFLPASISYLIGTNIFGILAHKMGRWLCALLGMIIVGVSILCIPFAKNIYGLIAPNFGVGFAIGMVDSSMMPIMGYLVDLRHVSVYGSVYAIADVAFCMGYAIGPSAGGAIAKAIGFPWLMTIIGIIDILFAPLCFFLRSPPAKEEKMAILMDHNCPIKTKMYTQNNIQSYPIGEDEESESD
# [5] = Cued fear conditioning / extinction training and recall; assay type: in vivo, mouse
# Experimental: Methods: Cued fear conditioning was performed in C57BL/6J mice. On day 1, animals were placed in the chambers and presented with a training session (CS-US pairing). The training consisted of a 2-minute habituation followed by a 30-second, 80 dB tone; during the last 2 seconds of the tone animals received a 1 mA foot shock. This US-CS procedure occurred once for a total of one paired presentation of tone and shock. Freezing behavior (immobility) was recorded in 5-10-see intervals during the session. Percent baseline freezing behavior was determined in the 2-minute habituation period. On day 3, animals were placed in context B, in which tactile and odor cues differed from context A. Following a 2 minute acclimation period animals received 4×30 sec presentations of the CS (tone) in the absence of the US (footshock), with a 45 sec interval between presentations. Freezing was recorded in 5-10-sec intervals to measure baseline freezing response to the altered context, and freezing response to each tone cuc presentation. […] On day 4 (Post-Extinction Testing in Drug-Free State), animals were placed in Context B. Following a 2 min acclimation period, animals received 4×30 sec extinction tone duration presentations of the CS (tone) in the absence of the US (footshock), with a 45 sec interval between presentations. Freezing was recorded in 5-10-sec intervals to measure baseline freezing response to the altered context, and freezing response to each tone cue presentation.
# SERT [6] = target: T1, SERT; experiment: [3H]5-HT release from rat brain synaptosomes; assay type: biochemical; set-up: from tissue; synaptosomes for uptake and release; conditions: rat brain synaptosomes; read-out: Neurotransmitter release: EC50
# Experimental: Test compounds and synaptosomes were prepared as described for uptake inhibition assays. Synaptosomes treated with [^3H]5-HT, [^3H]DA or [^3H]NE were loaded onto filter chambers containing GF/C filters and placed in a superfusion system. Oxygenated Krebs buffer was perfused through the chambers at a rate of 1.5 mL/minute at 35° C. using either an 8-channel or a 12-channel peristaltic pump. Trapped air bubbles were removed from the filters prior to collecting fractions to ensure an even flow over the synaptosomal bed. After a superfusion period of 45 minutes, 2 basal fractions were collected followed by 6 fractions following the addition of the test drug. […] Scintillation cocktail was added, and the filters counted to determine residual radioactivity. Drug-evoked release of neurotransmitter was calculated by subtracting the average of the two basal fractions (collected prior to the drug addition), from the four fractions collected in the presence of drug. The drug-evoked release was then expressed as a percentage of the basal release. Potassium-evoked release was calculated by subtracting the average of two fractions collected prior to the addition of high KCl buffer from that in the two fractions following addition of high KCl buffer. Potassium-stimulated release was calculated as a percentage of basal release. […]
# 5HT2C receptor = target: T2, 5HT2C receptor (Homo sapiens, UniProt P28335); experiment: GPCRmax screen, agonist mode, 5HT2C; assay type: cell-based; conditions: 1 or 10 mM
# T2 construct: host or cells: PathHunter cell lines
# T2 sequence (P28335 33-458): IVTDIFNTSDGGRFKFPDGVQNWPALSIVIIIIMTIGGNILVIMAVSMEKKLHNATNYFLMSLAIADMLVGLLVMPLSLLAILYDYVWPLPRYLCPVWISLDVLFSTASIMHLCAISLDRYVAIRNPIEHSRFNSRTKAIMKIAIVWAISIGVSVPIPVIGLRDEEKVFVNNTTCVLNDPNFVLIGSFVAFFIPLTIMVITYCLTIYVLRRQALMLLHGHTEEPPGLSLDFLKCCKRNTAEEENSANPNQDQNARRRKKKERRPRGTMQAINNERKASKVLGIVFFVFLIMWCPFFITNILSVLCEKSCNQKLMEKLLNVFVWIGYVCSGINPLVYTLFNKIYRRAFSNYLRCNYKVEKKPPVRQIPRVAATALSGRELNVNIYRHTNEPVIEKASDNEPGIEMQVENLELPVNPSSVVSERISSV
# DAT = DAT (Rattus norvegicus, UniProt P23977); experiment: [3H]DA uptake inhibition in rat brain synaptosomes; conditions: read-out: Reuptake inhibition: IC50; rat brain synaptosomes
# Chain of DAT (P23977 whole entry): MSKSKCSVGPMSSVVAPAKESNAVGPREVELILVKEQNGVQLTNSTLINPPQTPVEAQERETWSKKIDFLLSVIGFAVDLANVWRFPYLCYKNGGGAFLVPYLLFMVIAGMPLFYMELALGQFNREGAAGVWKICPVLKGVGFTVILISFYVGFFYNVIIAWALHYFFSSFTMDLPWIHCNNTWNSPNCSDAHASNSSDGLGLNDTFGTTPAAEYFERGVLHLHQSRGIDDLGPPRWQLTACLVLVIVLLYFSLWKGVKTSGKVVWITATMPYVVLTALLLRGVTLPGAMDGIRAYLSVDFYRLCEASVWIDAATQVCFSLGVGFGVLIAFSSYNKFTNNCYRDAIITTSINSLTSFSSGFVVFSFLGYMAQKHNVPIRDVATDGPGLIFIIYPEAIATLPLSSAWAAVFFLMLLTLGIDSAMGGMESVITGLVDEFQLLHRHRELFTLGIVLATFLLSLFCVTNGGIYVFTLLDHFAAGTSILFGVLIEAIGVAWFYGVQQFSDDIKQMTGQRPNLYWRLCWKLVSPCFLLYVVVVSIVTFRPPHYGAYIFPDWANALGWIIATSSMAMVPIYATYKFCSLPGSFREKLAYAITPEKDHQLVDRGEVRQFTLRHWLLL
# serotonin transporter = serotonin transporter (Homo sapiens, UniProt P31645); conditions: cited from earlier work
# Chain of serotonin transporter (P31645 whole entry): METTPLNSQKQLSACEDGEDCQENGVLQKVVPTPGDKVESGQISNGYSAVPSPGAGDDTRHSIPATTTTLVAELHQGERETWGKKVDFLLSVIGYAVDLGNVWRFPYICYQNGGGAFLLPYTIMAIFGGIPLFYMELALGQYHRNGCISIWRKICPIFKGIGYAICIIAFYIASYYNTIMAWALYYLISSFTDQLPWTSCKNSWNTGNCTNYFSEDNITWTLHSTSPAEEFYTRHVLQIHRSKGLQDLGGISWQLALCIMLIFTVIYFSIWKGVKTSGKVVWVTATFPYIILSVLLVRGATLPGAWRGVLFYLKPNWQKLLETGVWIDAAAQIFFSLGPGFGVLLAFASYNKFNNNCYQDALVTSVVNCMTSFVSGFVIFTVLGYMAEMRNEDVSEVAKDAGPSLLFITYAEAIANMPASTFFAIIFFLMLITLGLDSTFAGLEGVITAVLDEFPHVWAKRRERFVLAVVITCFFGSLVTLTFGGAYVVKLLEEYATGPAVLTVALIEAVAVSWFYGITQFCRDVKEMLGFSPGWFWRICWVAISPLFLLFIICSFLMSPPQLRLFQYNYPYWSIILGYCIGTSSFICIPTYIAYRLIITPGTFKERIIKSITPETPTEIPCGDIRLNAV
# 168 GPCRs = experiment: β-arrestin GPCR screen (PathHunter / GPCRmax), agonist mode; assay type: cell-based; conditions: CCR, 10 uM
# Experimental: For agonist determination, cells were incubated with sample to induce response. […] Vehicle concentration was 1%.
structure (smiles),measurement,setting,value
"CNC(C)C(=O)c1ccc2c(c1)OCO2 (stereo not drawn) [Methylone, 3,4-methylenedioxy-N-methylcathinone]",Head-twitch behaviors,[1],no effect on head-twitch behaviors at any dose tested
same,Cmax (geometric mean),"[2]; 50 mg oral, N = 3",151.2 ng/mL
same,AUC10hr (geometric mean),[2]; 50 mg oral,725 ng·h/mL
same,AUC24hr (geometric mean),[2]; 50 mg oral,988 ng·h/mL
same,AUCinf (geometric mean),[2]; 50 mg oral,1062 ng·h/mL
same,Half-life (geometric mean),[2]; 50 mg oral,6.2 h
same,Tmax (median),[2]; 50 mg oral,1.5 h
same,Cmax (geometric mean),"[2]; 100 mg oral, N = 6",283.9 ng/mL
same,AUC10hr (geometric mean),[2]; 100 mg oral,1554 ng·h/mL
same,AUC24hr (geometric mean),[2]; 100 mg oral,2232 ng·h/mL
same,AUCinf (geometric mean),[2]; 100 mg oral,2410 ng·h/mL
same,Half-life (geometric mean),[2]; 100 mg oral,6.0 h
same,Tmax (median),[2]; 100 mg oral,2.5 h
same,Cmax (geometric mean),"[2]; 150 mg oral, N = 5",340.2 ng/mL
same,AUC10hr (geometric mean),[2]; 150 mg oral,2153 ng·h/mL
same,AUC24hr (geometric mean),[2]; 150 mg oral,3165 ng·h/mL
same,AUCinf (geometric mean),[2]; 150 mg oral,3509 ng·h/mL
same,Half-life (geometric mean),[2]; 150 mg oral,6.7 h
same,Cmax (geometric mean),"[2]; 200 mg oral, N = 7",594.2 ng/mL
same,AUC10hr (geometric mean),[2]; 200 mg oral,3261 ng·h/mL
same,AUC24hr (geometric mean),[2]; 200 mg oral,4676 ng·h/mL
same,AUCinf (geometric mean),[2]; 200 mg oral,5116 ng·h/mL
same,Half-life (geometric mean),[2]; 200 mg oral,6.5 h
same,Time to reach maximum concentrations (Tmax),[2]; oral 50 mg to 200 mg,1 to 2 h
same,half-life,[2]; oral 50 mg to 200 mg,6 to 7 h
same,IC50,NET,130 nM
same,IC50,SERT [3],430 nM
same,"Affinity for VMAT2, times lower than that of MDMA",[4],about 13 ×
same,Persistence of effect post dose,[5]; 30 mg/kg IP,at least 11 days
same,Effect on fear extinction training and testing,"[5]; 30 mg/kg IP, 30 min before extinction training on Day 3","rapid, robust and long-lasting beneficial effect on fear extinction training and testing"
same,Fear extinction training on day 3,"[5]; 10, 20 or 30 mg/kg IP",All doses significantly improved fear extinction training on day 3
same,EC50,SERT [6],620 nM
same,Agonist % activity,5HT2C receptor,no agonist or antagonist activity
same,IC50,DAT,2300 nM
same,"Affinity for the serotonin transporter, times lower compared to MDMA",serotonin transporter,3 ×
same,% Activity,168 GPCRs,3.6%
